{
  "source": "patent US20060020035A1",
  "about": "“Bone marrow protection with N-acetyl-L-cysteine” (Oregon Health & Science University, priority 2004, published 2006)",
  "key": {"[1]": {"system": "total white cells, granulocytes, and platelets", "assay": "Example 2: L-NAC and D-NAC on rat blood counts after buthionine sulfoximine and tri-drug chemotherapy", "assay_type": "in vivo", "details": "pretreatment; rats pretreated with buthionine sulfoximine, tri-drug chemotherapy", "excerpt": "In the experiment shown in FIG. 4, rats were pretreated With buthionine sulfoximine to enhance the bone marrow toxicity of chemotherapy, and then treated with the tri-drug chemotherapy regimen with or without L-NAC or D-NAC."}, "[2]": {"assay": "N-Acetylcysteine clearance from rat blood (serum concentration, colorimetric kit and HPLC)", "assay_type": "in vivo, Long Evans rats", "procedure": "N-Acetylcysteine Clearance. […] Blood samples (0.5 ml) were collected 5, 15, 30, 60, and 90 min after thiol administration, and serum was evaluated for N-acetylcysteine concentration. Serum N-acetylcysteine concentrations were measured using the Bioxytech GSH-400 colorimetric kit (Oxis Research, Portland, Oreg.). The colorimetric assay was validated by high-pressure liquid chromatography (HPLC) analysis of serum thiols for n=2 rats from groups B and D. Deproteinated serum samples were diluted in 160 mM KH2PO4, pH 3. Thiols were measured by electrochemical detection using a Waters radial compression module with 10-μm C18 column (Waters, Milford, Mass.), an ESA 5010 analytical cell, and an ESA 5100A coulochem detector (ESA Inc., Chelmsford, Mass.). Area under the curve was compared with known concentrations prepared in control sera."}, "in vivo": {"assay": "in vivo", "details": "Long Evans, rat, maximum tolerated dose", "procedure": "(§1) Osmotic Blood-Brain Barrier Disruption. Anesthesia was induced with 5% isoflurane and maintained with propofol (650 μg/kg/min). Mannitol (25%, 37° C.) was infused cephalad into the left internal carotid artery via a left external carotid catheter (Remsen et al., Anesthesia Analgesia 88:559-67, 1999).\n(§2) Aortic Infusion Technique. The left internal carotid artery was temporarily occluded, and agents were administered retrograde to the descending aorta through a left external carotid catheter (Neuwelt et al., Cancer Res 61:7868-74, 2001).\nN-Acetylcysteine Toxicity. N-Acetyl-L-cysteine (N-acetylcysteine, Mucomyst; Roxane Laboratories, Inc., Columbus, Ohio) was given by aortic infusion 30 min (n=7) or 60 min (n=10) before blood brain barrier disruption in normal Long Evans rats. Doses ranged from 400 to 1500 mg/kg in 3 ml infused at 0.6 ml/min. Rats were sacrificed 6 days after treatment or at signs of acute neurotoxicity (head tilt, circling, moribund)."}, "[3]": {"system": "total white cells, granulocytes, and platelets", "assay": "Major tumor study: blood counts after tri-drug chemotherapy with or without chemoprotection", "assay_type": "in vivo, nude rats", "procedure": "as §1, §2"}, "[4]": {"details": "previously reported (Neuwelt et al. 1998); cited from earlier work"}, "bone marrow": {"system": "bone marrow", "details": "administered immediately after chemotherapy, alone or in combination with N-acetylcysteine (Neuwelt et al. 2001); cited from earlier work"}, "platelets": {"system": "platelets", "details": "8 g/m^2 intravenous 2, 4, or 8 h after high-dose carboplatin; blood counts 6 days after chemotherapy", "protocol": "Pilot study 2 evaluated various timing schemes for chemoprotection. Normal rats (n=54, six rats per group) were treated with a tri-drug chemotherapy regimen consisting of carboplatin (200 mg/m^2), melphalan (10 mg/m^2 Alkeran; GlaxoSmithKline, Uxbridge, Middlesex, UK), and etoposide phosphate (100 mg/m^2 Etopophos; Bristol-Meyers Squibb Co.), administered in the right carotid artery. […] For both pilot studies 1 and 2, blood counts were determined at 6 days after chemotherapy, in comparison with untreated controls. For blood count analysis, 0.5 ml of whole blood collected in EDTA microtubes was analyzed in duplicate on a Hemavet 850 (CDC Technologies Inc., Oxford, Conn.)."}, "[5]": {"details": "1000 mg/kg by aortic infusion, 60 min before chemotherapy"}},
  "note": "Like-named read-outs stand apart in the source and are kept apart here.",
  "data": [
    {"smiles": "CC(=O)N[C@H](CS)C(=O)O", "note": "[D-NAC, N-acetyl-D-cysteine]", "values": [
      {"measurement": "bone marrow chemoprotective activity (total white cells, granulocytes, and platelets)", "setting": "[1]", "value": "not bone marrow protective"}
    ]},
    {"smiles": "CC(=O)N[C@@H](CS)C(=O)O", "note": "[N-acetylcysteine, N-acetyl-L-cysteine]", "values": [
      {"measurement": "maximum blood concentration", "setting": "[2]; 1000 mg/kg intra-arterially, 5 min after infusion", "value": "11.2 ± 1.3", "unit": "mM"},
      {"measurement": "blood concentration at the time of chemotherapy delivery", "setting": "[2]; 1000 mg/kg intra-arterially, 60 min after infusion", "value": "200 ± 100", "unit": "µM"},
      {"measurement": "half-life", "setting": "[2]; Long Evans, rat, serum, other: intravenous or aortic infusion (all groups), all groups: 140-1200 mg/kg, intravenous or aortic infusion", "value": "9 to 11", "unit": "min"},
      {"measurement": "MTD at 6 days", "setting": "in vivo; aortic infusion 30 min before blood-brain barrier disruption", "value": 500, "unit": "mg/kg"},
      {"measurement": "MTD at 6 days", "setting": "in vivo; aortic infusion 60 min before blood-brain barrier disruption", "value": 1000, "unit": "mg/kg"},
      {"measurement": "protection for granulocytes", "setting": "[3]; [5]", "value": "significantly protective"},
      {"measurement": "protection for white cells", "setting": "[3]; [5]", "value": "significantly protective"},
      {"measurement": "platelet chemoprotection", "setting": "[3]; N-acetylcysteine alone, 1000 mg/kg by aortic infusion, 60 min before chemotherapy", "value": "not significant"},
      {"measurement": "bone marrow chemoprotective activity (total white cells, granulocytes, and platelets)", "setting": "[1]", "value": "significantly reduced chemotherapy toxicity"}
    ]},
    {"smiles": "O=S([O-])([O-])=S.[Na+].[Na+]", "note": "[sodium thiosulfate]", "values": [
      {"measurement": "half-life", "setting": "[4]", "value": 15, "unit": "min"},
      {"measurement": "bone marrow chemoprotective activity", "setting": "bone marrow", "value": "minimal bone marrow chemoprotective activity"},
      {"measurement": "protection against chemotherapy-induced bone marrow suppression", "setting": "[3]; sodium thiosulfate 8 g/m^2 4 and 8 h after chemotherapy, with or without N-acetylcysteine 1000 mg/kg 60 min before", "value": "minimal protective effect"},
      {"measurement": "platelet chemoprotection", "setting": "platelets", "value": "delaying sodium thiosulfate administration improved platelet chemoprotection"}
    ]}
  ]
}
